Test results as given in patent US20220387375A1, “TRPV1 ACTIVATION-MODULATING COMPLEX MIXTURES OF CANNABINOIDS AND/OR TERPENES” (GBS Global Biopharma, Inc., priority 2018, published 2022).

Legend:
[1] = molecular target: T1, TRPV1 (Rattus norvegicus, UniProt O35433); assay: Bulk calcium assay (Fluo-4) in HEK-TRPV1 overexpressing cells; format: cell-based; conditions: for TRPV1-mediated calcium influx compared to vehicle: terpene 10 μM, vehicle subtracted (FIG. 14)
T1 construct: FLAG; expressed in transfected cells
Protocol: Cells were washed and incubated with 0.2 micromolar Fluo-4 for 30 minutes at 37° C. in a standard modified Ringer's solution of the following composition (in mM): NaCl 145, KCl 2.8, CsCl 10, CaCl2 10, MgCl2 2, glucose 10, Hepes·NaOH 10, pH 7.4, 330 mOsm. Cells were transferred to 96-well plates at 50,000 cells/well and stimulated as indicated. Calcium signals were acquired using a Flexstation 3 (Molecular Devices, Sunnydale, USA). Data was analyzed using SoftMax® Pro 5 (Molecular Devices). Where indicated, nomically calcium-free external conditions were achieved by the preparation of 0 mM CaCl2 Ringer solution containing 1 mM EGTA.
The cell culture system described in U.S. patent application Ser. No. 15/986,316 was used to test the TRPV1-mediated calcium response to various terpenes. The HEK293 cell line was stably transfected with the pcDNA6TR (Invitrogen, CA) plasmid (encoding the tetracycline-sensitive TREx repressor protein), and was maintained in DMEM+10% fetal bovine serum (inactivated at 55° C. for 1 h)+2 mM glutamine in humidified 5% CO2 atmosphere at 37° C. Selection pressure on the TRex 293 cells was maintained by continuous culture in 10 μg/ml Blasticidin (Sigma, St Louis, Mo.).
For production of TRex HEK293 cells with inducible expression of TRPV1, parental cells were electroporated with the rat TRPV1 cDNA in the pcDNA4TO vector and clonal cell lines were selected by limiting dilution in the presence of 400 μg/ml zeocin (Invitrogen, CA). TRPV1 expression was induced using 1 μg/ml tetracycline for 16 h at 37° C. Stable lines were screened for inducible protein expression using anti-FLAG Western blot, and inducible expression was confirmed.
Calcium responses mediated by TRPV1 were tested by calcium assay in the cell culture system. Cells were washed and incubated with 0.2 μM fluo-4 acetoxymethyl ester (“Fluo-4”) for 30 minutes at 37° C. in a standard modified Ringer's solution of the following composition (in mM): NaCl 145, KCl2.8, CsCl10, CaCl2 10, MgCl2 2, glucose 10, Hepes·NaOH 10, pH 7.4, 330 mOsm. Cells were transferred to 96-well plates at 50,000 cells/well and stimulated as indicated. The terpenes used were alpha-bisabool, alpha-pinene, myrcene, camphene, linalool, ocimene, humulene, beta-caryophyllene, beta-pinene, limonene, and nerolidol. The terpenes were diluted in DMSO and added to the wells to a final concentration of 10 μM. Vehicle (DMSO) alone was run as a negative control and subtracted from the terpene traces. Calcium signals were acquired using a Flexstation 3 (Molecular Devices, Sunnydale, USA). Data was analyzed using SoftMax® Pro 5 (Molecular Devices).
Calcium responses mediated by TRPA1, TRPM8, TRPV2, and TRPV1 were tested by calcium assay in the cell culture system. Cells were washed and incubated with 0.2 μM fluo-4 acetoxymethyl ester (“Fluo-4”) for 30 minutes at 37° C. in a standard modified Ringer's solution of the following composition (in mM): NaCl 145, KCl 2.8, CsCl 10, CaCl2 10, MgCl2 2, glucose 10, Hepes·NaOH 10, pH 7.4, 330 mOsm. Cells were transferred to 96-well plates at 50,000 cells/well and stimulated with 10 μM myrcene diluted in DMSO. Vehicle (DMSO) was used as a negative control. Vehicle traces were subtracted from the myrcene traces for each cell line.
As shown in FIGS. 16A-H, a variety of cannabinoids were capable of initiating Ca^2+ fluxes in HEK-TRPV1 overexpressing cells, except for cannabigerol and cannabinol. Comparative responses to a single dose (10 μM concentration) of a variety of cannabinoids were made in the presence of 1 mM external Ca^2+, which are population-based, or bulk Ca^2+, measurements with each trace representing averaged triplicates of 100,000 cells per sample. […] For each of the cannabinoid compounds, dose responses at the population level were performed. […] The lower limit of detectable calcium responses in this system varied from 10-100 nM (CBDV, CBGA) to 1-10 μM.

[2] = molecular target: T1, TRPV1; assay: Whole-cell patch clamp of TRPV1 currents in HEK293 cells overexpressing TRPV1 (HEK293-V1); format: cell-based; conditions: for effect of increasing internal calcium (0, 180, 620 nM) on falling phase or inactivation kinetics: 10 μM myrcene, then 1 μM capsaicin; for time course of induced TRPV1 current (sustained or inactivating): cannabinoid at 50, 5 μM myrcene or 1 μM capsaicin; for ion selectivity / state of TRPV1 activation: 10 μM capsaicin
Protocol: HEK TRexTRPV1 were cultured in DMEM, 10% Fetal Bovine Serum, 2 mM Lglutamine, 10 μg/ml Blasticidin (Calbiochem, San Diego Calif.), 400 μg/ml Zeocin (InvivoGen, San Diego Calif.), where indicated transgene expression was induced using 1 μg/ml Tetracycline for 16-24 hrs. Unless otherwise indicated, basal expression of TRPV1 without induction was sufficient for these studies, and comparisons were made to untransfected HEK where needed. HEKTRex293 over-expressing human TRPV2, human TRPA1 and human TRPM8 were obtained from SB Drug Discovery (Glasgow, Scotland) and cultured as described above. The cannabinoids and terpenes were assayed in HEK cells that have been transfected with the TRPV1 ion channel protein. These cells are called HEK293-V1 cells.
This technique is used to study ionic currents from HEK293-V1. The voltage across the cell membrane is controlled and the ionic currents associated with changes in voltage are measured. A micropipette tip is pulled to a few micrometers in diameter followed by heating the tip to produce a smooth surface that assists in forming a high resistance seal with the cell membrane. To obtain this high resistance seal, the micropipette is pressed against a cell membrane and suction is applied. The membrane then fuses onto the glass surface creating a high resistance in the gigaohm range. This makes it possible to isolate electronically the ionic currents measured across the membrane patch or across the entire cell.
Patch-clamp experiments were performed in the whole-cell configuration at 21-25° C. Patch pipettes had resistances of 2-3 MΩ. Data was acquired with PatchMaster software (HEKA, Lambrecht, Germany), controlling an EPC-9 amplifier. Voltage ramps of 50 ms spanning the voltage range from −100 to 100 mV were delivered from a holding potential of 0 mV at a rate of 0.5 Hz over a period of 500 ms to 180 seconds (3 minutes). Voltages were corrected for a liquid junction potential of 10 mV. Currents were filtered at 2.9 kHz and digitized at 100 μs intervals. Capacitive currents were determined and corrected before each voltage ramp. The development of currents for a given potential was extracted from individual ramp current records by measuring the current amplitudes at voltages of −80 mV and +80 mV. Data were analyzed with FitMaster (HEKA, Lambrecht, Germany), and IgorPro (WaveMetrics, Lake Oswego, Oreg., USA). Where applicable, statistical errors of averaged data are given as mean±s.e.m with n determinations. The activated current amplitudes are analyzed by nA rather than pA/pF. […] Also the cell size selected for patching was in the 9 -12 pF range.
For patch-clamp recordings, HEK293 cells were kept in a standard sodium-based external Ringer's solution containing (mM): 140 NaCl, 1 CaCl2, 2 MgCl2, 2.8 KCl, 11 glucose, 10 HEPES-NaOH with a pH of 7.2 and osmolarity of 300 mOsmol. To assess the effects of external Calcium (Ca) on TRPV1 inactivation kinetics, Ca at different levels were tested including 0, 1, and 3 mM. In Experiments with zero external Ca, EGTA 10 mM was added and the Na concentration was lowered to 130 mM to maintain standard osmotic conditions at 300 mOsmol. For rapid external solution application and exchanges we used the SmartSquirt delivery system (Auto-Mate Scientific, San Francisco Calif., USA) that included four cryo tubes allowing for solution exchanges within one patch. This system included a ValveLink TTL interface between the electronic valves and the EPC10 amplifier (HEKA, Lambrecht, Germany). This electronic configuration allowed for programmable solution changes via the PatchMaster software (HEKA, Lambrecht, Germany).

T1 sequence (O35433 whole entry): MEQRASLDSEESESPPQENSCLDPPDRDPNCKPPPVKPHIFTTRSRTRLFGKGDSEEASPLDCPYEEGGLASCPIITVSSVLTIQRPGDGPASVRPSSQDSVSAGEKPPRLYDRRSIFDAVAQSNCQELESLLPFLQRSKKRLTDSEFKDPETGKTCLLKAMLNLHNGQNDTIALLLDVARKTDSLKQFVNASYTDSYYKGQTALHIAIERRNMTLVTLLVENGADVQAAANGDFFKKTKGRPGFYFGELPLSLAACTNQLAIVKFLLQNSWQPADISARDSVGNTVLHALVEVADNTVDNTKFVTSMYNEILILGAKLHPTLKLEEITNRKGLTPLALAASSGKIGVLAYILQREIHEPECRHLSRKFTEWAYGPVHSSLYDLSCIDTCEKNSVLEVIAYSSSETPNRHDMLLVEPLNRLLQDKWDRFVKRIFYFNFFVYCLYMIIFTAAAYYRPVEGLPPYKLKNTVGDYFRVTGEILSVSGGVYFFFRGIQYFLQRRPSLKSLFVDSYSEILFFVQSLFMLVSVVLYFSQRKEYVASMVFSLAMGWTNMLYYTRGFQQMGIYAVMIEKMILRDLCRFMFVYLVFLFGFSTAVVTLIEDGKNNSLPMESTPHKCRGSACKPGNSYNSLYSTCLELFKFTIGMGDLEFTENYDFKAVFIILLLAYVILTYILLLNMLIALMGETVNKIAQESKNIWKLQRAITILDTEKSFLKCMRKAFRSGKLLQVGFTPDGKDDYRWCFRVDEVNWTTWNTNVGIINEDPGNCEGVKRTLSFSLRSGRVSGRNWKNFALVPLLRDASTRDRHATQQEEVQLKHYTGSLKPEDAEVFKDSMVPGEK

C=C1CCC2CC1C2(C)C (stereo not drawn) [beta-pinene]
TRPV1-mediated calcium influx compared to vehicle [1]: little to no calcium influx

C/C1=C\CC/C(C)=C/CC(C)(C)/C=C/C1 [humulene]
TRPV1-mediated calcium influx compared to vehicle [1]: little to no calcium influx

C=CC(C)(O)CCC=C(C)C (stereo not drawn) [linalool]
TRPV1-mediated calcium influx compared to vehicle [1]: little to no calcium influx

C=CC(C)(O)CCC=C(C)CCC=C(C)C (stereo not drawn) [nerolidol]
TRPV1-mediated calcium influx compared to vehicle [1]: brief initial calcium influx

C=CC(C)=CCC=C(C)C [ocimene]
TRPV1-mediated calcium influx compared to vehicle [1]: little to no calcium influx

Oc1cc2c(cc1O)CN(C(=S)NCCc1ccc(Cl)cc1)CCC2 [Capsazepine, reference compound]
effect on capsaicin-induced TRPV1 current ([2]; CPZ 10 μM for 30 seconds after 50 nM Capsaicin for 60 seconds): reduced both the inward and outward currents
effect on capsaicin-activated TRPV1 channel (state 1 and state 2) ([2]; CPZ added after 10 μM capsaicin): rapid TRPV1 channel deactivation
effect on CBD-induced TRPV1 current ([2]; CPZ application 30 seconds after CBD 30 μM): reduced

C=C1C2CCC(C2)C1(C)C (stereo not drawn) [camphene]
TRPV1-mediated calcium influx compared to vehicle [1]: little to no calcium influx

C=C(C)[C@H]1CC=C(C)CC1 [limonene]
TRPV1-mediated calcium influx compared to vehicle [1]: little to no calcium influx

C=CC(=C)CCC=C(C)C [myrcene, 7-methyl-3-methylideneocta-1,6-diene]
activation of cells overexpressing TRPV1 (calcium entry) ([1]; 10 μM myrcene): activated
TRPV1-mediated calcium influx compared to vehicle [1]: greatest amount of calcium influx
inward current induced ([2]; 5 μM myrcene, average of 6 independent experiments): approximately 0.5 nA
effect of increasing internal calcium (0, 180, 620 nM) on falling phase or inactivation kinetics [2]: minor effect
IV relationship / TRPV1 channel state ([2]; 50 μM myrcene (FIG. 10C)): state 1
IV relationship / TRPV1 channel state ([2]; 150 μM myrcene (FIG. 11)): state 1
time course of induced TRPV1 current (sustained or inactivating) [2]: rapidly inactivating
current induced ([2]; myrcene 5 μM, 10 μM and 150 μM (FIGS. 8A-8C)): 0.5-2.2 nA

COc1cc(CNC(=O)CCCC/C=C/C(C)C)ccc1O [capsaicin, Capsaicin, reference compound]
current induced ([2]; 1 μM capsaicin (not shown), comparison to myrcene): 4-10 nA
ion selectivity / state of TRPV1 activation ([2]; absence of internal BAPTA and Ca2+): Ca^2 ion selective TRPV1 activation
ion selectivity / state of TRPV1 activation ([2]; presence of internal 10 mM BAPTA and 150 nM Ca2+): Na^+ ion selective TRPV1 activation
effect of increasing internal calcium (0, 180, 620 nM) on falling phase or inactivation kinetics [2]: stronger effect
type of TRPV1 current recorded ([2]; Capsaicin 50 nM for 60 seconds, Ca 0 internally and externally): outwardly rectifying TRPV1 current
rectification of current (resulted in rectifying currents or not) ([2]; Capsaicin 500 nM): did not
rectification of current ([2]; Capsaicin low (30 nM) and medium (100 nM) doses): rectifying currents
IV relationship / TRPV1 channel state ([2]; after 1 μM capsaicin): linear due to TRPV1 transitioning to the dilated state (state 2)
time course of induced TRPV1 current (sustained or inactivating) [2]: sustained

CC1=CCC2CC1C2(C)C (stereo not drawn) [alpha-pinene]
TRPV1-mediated calcium influx compared to vehicle [1]: little to no calcium influx

C=C1CC/C=C(\C)CC[C@@H]2[C@@H]1CC2(C)C [beta-caryophyllene]
TRPV1-mediated calcium influx compared to vehicle [1]: little to no calcium influx

CC(C)=CCC[C@](C)(O)[C@@H]1CC=C(C)CC1 [alpha-bisabool]
TRPV1-mediated calcium influx compared to vehicle [1]: little to no calcium influx
